Measured values published in ChEMBL document CHEMBL1138261, “Probing binding requirements of type I and type II isoforms of inosine monophosphate dehydrogenase with adenine-modified nicotinamide adenine dinucleotide analogues” (J Med Chem, 2007).

Assays:
[1] = Inhibition of horse liver alcohol dehydrogenase; parameters: species or system Equus caballus
[2] = target: L-lactate dehydrogenase (Bos taurus); assay: Inhibition of bovine heart lactate dehydrogenase
[3] = target: Inosine-5'-monophosphate dehydrogenase 1 (Homo sapiens, UniProt P20839); assay: Inhibition of human IMPDH type 1
[4] = target: Malate dehydrogenase (Sus scrofa); assay: Inhibition of porcine heart malate dehydrogenase
[5] = target: Inosine-5'-monophosphate dehydrogenase 2 (Homo sapiens, UniProt P12268); assay: Inhibition of human IMPDH type 2
[6] = tested on: K562; assay: Antiproliferative activity against human K562 cells after 72 hrs; type: functional, cell-based; conditions: K562, 72 h

Sequence of Inosine-5'-monophosphate dehydrogenase 1 (P20839 whole entry): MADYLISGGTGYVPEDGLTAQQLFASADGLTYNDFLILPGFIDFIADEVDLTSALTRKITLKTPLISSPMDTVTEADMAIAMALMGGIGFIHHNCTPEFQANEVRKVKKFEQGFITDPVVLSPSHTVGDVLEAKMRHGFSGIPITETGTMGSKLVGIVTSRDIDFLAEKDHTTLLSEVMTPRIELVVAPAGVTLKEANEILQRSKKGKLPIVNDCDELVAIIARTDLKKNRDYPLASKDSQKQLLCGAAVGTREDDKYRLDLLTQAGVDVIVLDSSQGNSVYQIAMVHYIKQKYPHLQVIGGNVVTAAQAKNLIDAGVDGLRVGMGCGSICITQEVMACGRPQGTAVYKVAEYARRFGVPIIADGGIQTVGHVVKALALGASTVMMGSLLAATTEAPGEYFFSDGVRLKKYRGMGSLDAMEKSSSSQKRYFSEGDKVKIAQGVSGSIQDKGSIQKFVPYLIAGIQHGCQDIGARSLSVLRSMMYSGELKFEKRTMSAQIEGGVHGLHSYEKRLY

SMILES | IC50 [1] | IC50 [2] | Ki [3] | IC50 [4] | Ki [5] | IC50 [6]
C#Cc1nc(N)c2ncn([C@@H]3O[C@H](COP(=O)(O)OP(=O)(O)OC[C@H]4O[C@@H](c5nc(C(N)=O)cs5)[C@H](O)[C@@H]4O)[C@@H](O)[C@H]3O)c2n1 | > 50000 nM | > 50000 nM | 10 nM | > 50000 nM | 49 nM | –
CCc1nc(N)c2ncn([C@@H]3O[C@H](COP(=O)(O)OP(=O)(O)OC[C@H]4O[C@@H](c5nc(C(N)=O)cs5)[C@H](O)[C@@H]4O)[C@@H](O)[C@H]3O)c2n1 | > 50000 nM | > 50000 nM | 1 nM | > 50000 nM | – | –
NC(=O)c1csc([C@@H]2O[C@H](COP(=O)(O)OP(=O)(O)OC[C@H]3O[C@@H](n4cnc5c(N)nc(I)nc54)[C@H](O)[C@@H]3O)[C@@H](O)[C@H]2O)n1 | – | > 50000 nM | 19 nM | > 50000 nM | 84 nM | –
NC(=O)c1csc([C@@H]2O[C@H](COP(=O)(O)OP(=O)(O)OC[C@H]3O[C@@H](n4cnc5c(N)nc(N)nc54)[C@H](O)[C@@H]3O)[C@@H](O)[C@H]2O)n1 | > 50000 nM | > 50000 nM | 7 nM | > 50000 nM | – | –
COc1c(C)c2c(c(O)c1CCOP(=O)(O)CP(=O)(O)OC[C@H]1O[C@@H](n3cnc4c(N)nc(-c5ccccc5)nc43)[C@H](O)[C@@H]1O)C(=O)OC2 | > 50000 nM | > 50000 nM | 66 nM | 14300 nM | 108 nM | 1100 nM
C=Cc1nc(N)c2ncn([C@@H]3O[C@H](COP(=O)(O)OP(=O)(O)OC[C@H]4O[C@@H](c5nc(C(N)=O)cs5)[C@H](O)[C@@H]4O)[C@@H](O)[C@H]3O)c2n1 | 39000 nM | > 50000 nM | 96 nM | > 50000 nM | 94 nM | –
COc1c(C)c2c(c(O)c1C/C=C(\C)CCC(=O)O)C(=O)OC2 [MYCOPHENOLIC ACID] | – | – | – | – | – | 7700 nM
NC(=O)c1csc([C@@H]2O[C@H](COP(=O)(O)OP(=O)(O)OC[C@H]3O[C@@H](n4cnc5c(N)ncnc54)[C@H](O)[C@@H]3O)[C@@H](O)[C@H]2O)n1 [TIAZOFURIN ADENINE DINUCLEOTIDE] | – | – | – | – | – | 12400 nM

Other lines, results leading:

IC50 [1] | IC50 [2] | Ki [3] | IC50 [4] | Ki [5] | IC50 [6] | SMILES
– | > 50000 nM | 20 nM | > 50000 nM | 143 nM | – | NC(=O)c1csc([C@@H]2O[C@H](COP(=O)(O)OP(=O)(O)OC[C@H]3O[C@@H](n4cnc5c(N)nc(-c6ccccc6)nc54)[C@H](O)[C@@H]3O)[C@@H](O)[C@H]2O)n1
– | > 50000 nM | 45 nM | 30000 nM | 169 nM | – | NC(=O)c1csc([C@@H]2O[C@H](COP(=O)(O)OP(=O)(O)OC[C@H]3O[C@@H](n4cnc5c(N)nc(NCc6ccccc6)nc54)[C@H](O)[C@@H]3O)[C@@H](O)[C@H]2O)n1
– | > 50000 nM | 73 nM | 12700 nM | 255 nM | – | NC(=O)c1csc([C@@H]2O[C@H](COP(=O)(O)OP(=O)(O)OC[C@H]3O[C@@H](n4cnc5c(N)nc(NCCc6ccccc6)nc54)[C@H](O)[C@@H]3O)[C@@H](O)[C@H]2O)n1
> 50000 nM | > 50000 nM | 45 nM | > 50000 nM | 153 nM | – | NC(=O)c1csc([C@@H]2O[C@H](COP(=O)(O)OP(=O)(O)OC[C@H]3O[C@@H](n4cnc5c(N)nc(Nc6ccccc6)nc54)[C@H](O)[C@@H]3O)[C@@H](O)[C@H]2O)n1
